pEC50: −log10 of the molar value.
What was measured:
[1] = cPA analogue stability in the 293A cell medium; type: in vitro ADME; conditions: 10 µM, 1 h, 37 °C, 293A (HEK) cell medium
Experimental: Supplementary Figure S3. Cyclic phosphatidic acid (cPA) analogue stability in the HEK cell medium. Each cPA analogue (final concentration: 10 µM) was incubated with the HEK cell medium for 1 h at 37 °C. The remaining cPA analogue was quantified using liquid chromatography with tandem mass spectrometry (LC-QqQ) and calculated based on the percentage (%) ratio of the final concentration after incubation to the initial concentration. Data are represented as mean ± standard deviation (n = 3 samples).
293A cells were prepared in Hank’s balanced salt solution (HBSS) in 96-well plates. […] After incubation for 1 h at 37 ℃, 80 µL of the supernatant was collected and mixed with 320 µL of acidic methanol, including LPA 17:0 and cPA 17:0 (final concentration: 0.2 µM each; Avanti Polar Lipids, Alabaster, AL, USA).

hLPA1 = molecular target: T1, hLPA1 (Homo sapiens, UniProt Q92633); assay: TGFα-shedding assay, LPA1; type: cell-based; conditions: 293A cells, AP-TGFα release
T1 construct: expressed in transfected cells; host or cells: 293A cells
Experimental: Figure 4 Agonistic activity of 2-carba-lysophosphatidic acid (2carbaLPA) and cyclic phosphatidic acid (cPA) analogues toward six lysophosphatidic acid (LPA) receptors. 293A cells expressing LPA receptors were stimulated with the indicated concentration of LPA, 2carbaLPA, and cPA analogues. Receptor-specific alkaline phosphatase-tagged transforming growth factor-α release was calculated by subtracting the responses in the empty vector-transfected cells from those in the receptor-expressing cells. Data are represented as standard error of the mean of three independent replicates.
293A cells (Life Technologies, Tokyo, Japan) were cultured in DMEM (Nissui Pharmaceutical, Tokyo, Japan) supplemented with 10% foetal calf serum (Gibco, Waltham, MA, USA) in an incubator at 37 °C and 5% CO2. This assay was conducted according to a modified version of a method described previously. To improve signal detection, cells for the analysis of LPA1, LPA2, LPA4, and LPA5 were transfected with Gα-chimeric proteins, whereas those for LPA4, LPA5, LPA6 analysis were treated with the LPA1–3 antagonist Ki16425. The cells were co-transfected with vectors-expressing human LPA1–6, alkaline phosphatase-tagged TGFα (AP-TGFα). As negative controls, cells transfected with an empty vector instead of the receptor-expressing vector were used. After 24 h, the cells were resuspended in Hank’s balanced salt solution (HBSS), seeded in 96-well plates, and stimulated with cPA analogues administered at tenfold concentration of the final concentration. The cPA analogues were diluted with HBSS, 0.01% protease and fatty acid-free BSA (SERVA Electrophoresis GmbH, Heidelberg, Germany). Cells for LPA4, LPA5, and LPA6 analysis were treated with Ki16425 (final concentration: 10 μM), 5 min before treatment with the cPA analogues. After incubation for 1 h at 37 °C, 80 µL of the supernatant was transferred to fresh 96-well plates. An equal volume of 1 mM p-NPP solution [120 mM Tris–HCl (pH 9.5), 40 mM NaCl, and 10 mM MgCl2] was added to both the supernatant and the cells. Alkaline phosphatase activity was calculated by measuring absorbance at 405 nm using the Cytation 3 plate reader (BioTek, Winooski, VT, USA).

[2] = test system: extracellular signal-regulated kinase (ERK) phosphorylation; assay: Western blot analysis of phosphorylated ERK in HeLa cells; type: cell-based; conditions: HeLa cells preincubated with 10 µM Ki16425 for 30 min
Experimental: Figure 3 Effects of 2-carba-lysophosphatidic acid (2carbaLPA) on the phosphorylation of the extracellular signal-regulated kinase (ERK) protein. HeLa cells were preincubated with 10 µM Ki16425 for 30 min at 37 °C and then incubated with 10 µM 2carbaLPA, lysophosphatidic acid (LPA) 18:1, or vehicle for 5 min at 37 °C. Protein levels of phosphorylated ERK, total ERK, and α-tubulin were determined by western blot analysis. The full-length blots are shown in the Supplementary Fig. S2.
HeLa cells were obtained from RIKEN RBC Cell Bank (Tsukuba, Japan). […] Cells were harvested using 0.125 M Tris–HCl (pH 6.8) supplemented with 4% sodium dodecyl sulphate (SDS), 20% glycerol, 10% 2-mercaptoethanol, and 0.01% bromophenol blue. Proteins were separated by SDS–polyacrylamide gel electrophoresis, and the proteins were transferred onto an Immobilon-P Transfer Membrane (Millipore, Burlington, MA, USA). The membrane was incubated with primary antibodies: anti-phospho-ERK (pERK), anti-ERK, and anti-tubulin (all at 1:1,000 dilution, Cell Signaling Technology, Danvers, MA, USA). Next, after washing, the membrane was treated with horseradish peroxidase-conjugated anti-rabbit IgG (1:1000 dilution; Cell Signaling Technology). Immunodetection was performed using an enhanced chemiluminescence system (EzWestLumi plus, ATTO Corporation, Tokyo, Japan) and ImageQuant LAS 4000 (GE healthcare, Buckinghamshire, UK).

T1 sequence (Q92633 whole entry): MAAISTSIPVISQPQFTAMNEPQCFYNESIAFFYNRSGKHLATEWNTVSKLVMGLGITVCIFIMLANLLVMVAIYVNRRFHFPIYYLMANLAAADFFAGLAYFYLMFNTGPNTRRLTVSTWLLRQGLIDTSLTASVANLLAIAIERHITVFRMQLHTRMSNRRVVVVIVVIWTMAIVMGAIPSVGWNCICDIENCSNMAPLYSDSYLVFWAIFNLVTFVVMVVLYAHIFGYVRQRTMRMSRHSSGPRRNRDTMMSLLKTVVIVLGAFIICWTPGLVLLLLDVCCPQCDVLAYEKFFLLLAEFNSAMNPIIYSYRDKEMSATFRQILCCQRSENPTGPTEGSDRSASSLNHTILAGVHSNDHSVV

Row | SMILES | Compound remaining after incubation [1] | pEC50 (hLPA1; 1 h) | Emax (hLPA1; read-out: Emax ± SEM hLPA1 (converted)) | Effect on 2carbaLPA-induced ERK activation [2]
1 | CCCCCCCCC=CCCCCCCCC(=O)OCC(O)COP(=O)(O)O (stereo not shown) [LPA 18:1, 1-Oleoyl-LPA] | approximately 70% | 7.94 | 26.9% | 
2 | Cc1noc(-c2ccc(CSCCC(=O)O)cc2)c1NC(=O)OC(C)c1ccccc1Cl (stereo not shown) [Ki16425] |  |  |  | inhibited

Reference: article PMC8405639, “2-Carba-lysophosphatidic acid is a novel β-lysophosphatidic acid analogue with high potential for lysophosphatidic acid receptor activation and autotaxin inhibition” (Scientific Reports, 2021)
